Experiments:
GST-JAK2(808-1132) = biological target: T1, GST-JAK2(808-1132) (Homo sapiens, UniProt O60674); assay: JAK2 kinase assay (Caliper mobility shift, LabChip 3000); type: biochemical
T1 construct: GST-JAK2(808-1132); purchased Invitrogen (Carlsbad, USA) #4288
How it was run: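 Recombinant GST-JAK2(808-1132) kinase domain with FITC-labelled JAK3tide peptide substrate and ATP; 60 min at 30 °C, EDTA stop. Substrate/product ratio read by microfluidic mobility shift; compounds at 8 final concentrations, 10 to 0.003 μM.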

[1] = tested on: JAK1/JAK2-dependent nuclear translocation of STAT1-GFP in HT1080 fibrosarcoma cells; assay: STAT1 nuclear translocation assay (Cellomics), IFN-γ stimulated HT1080 STAT1-GFP cells; type: cell-based; conditions: Homo sapiens, HT-1080, STAT1 translocation pathway
How it was run: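 HT1080 cells stably expressing STAT1-GFP, pre-treated 30 min with compound (10 μM–0.003 μM, 0.1% DMSO), then stimulated 2 h with 100 ng/ml IFN-γ, fixed and Hoechst-stained. Nuclear-cytoplasmic GFP differential imaged over ≥1000 cells/well, normalised to unstimulated and DMSO-stimulated wells for IC50.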

T1 sequence (O60674 808-1132): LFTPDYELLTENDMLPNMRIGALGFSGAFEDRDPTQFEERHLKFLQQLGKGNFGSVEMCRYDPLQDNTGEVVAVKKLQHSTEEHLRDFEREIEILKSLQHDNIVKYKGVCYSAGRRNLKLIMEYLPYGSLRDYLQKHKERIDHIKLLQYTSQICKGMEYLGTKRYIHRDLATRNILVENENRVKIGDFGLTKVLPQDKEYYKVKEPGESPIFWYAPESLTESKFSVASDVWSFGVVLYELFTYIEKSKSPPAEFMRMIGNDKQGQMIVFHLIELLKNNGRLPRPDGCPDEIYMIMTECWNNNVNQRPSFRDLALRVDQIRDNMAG

| SMILES | IC50 (GST-JAK2(808-1132)) | IC50 [1] |
| --- | --- | --- |
| Cc1ccc(Nc2ncc3ccn(-c4cc(F)c(CN5CCN(C(C)C)CC5)c(F)c4)c3n2)cc1C [Example 305, {7-[3,5-Difluoro-4-(4-isopropyl-piperazin-1-ylmethyl)-phenyl]-7H-pyrrolo[2,3-d]pyrimidin-2-yl}-(3,4-dimethyl-phenyl)-amine] | 26 nM | 2680 nM |
| Cc1ccc(Nc2ncc3ccn(-c4cc(F)c(CN5CCN(C6CC6)CC5)c(F)c4)c3n2)cc1C [Example 306, {7-[4-(4-Cyclopropyl-piperazin-1-yl methyl)-3,5-difluoro-phenyl]-7H-pyrrolo[2,3-d]pyrimidin-2-yl}-(3,4-dimethyl-phenyl)-amine] | 39.5 nM | 550 nM |
| COc1cc(Nc2ncc3ccn(-c4cc(F)c(CN5CCOCC5)c(F)c4)c3n2)ccc1C [Example 307, [7-(3,5-Difluoro-4-morpholin-4-ylmethyl-phenyl)-7H-pyrrolo[2,3-d]pyrimidin-2-yl]-(3-methoxy-4-methyl-phenyl)-amine] | 14 nM | 120 nM |
| COc1cc(Nc2ncc3ccn(-c4cc(F)c(CN5CCS(=O)(=O)CC5)c(F)c4)c3n2)ccc1C [Example 308, {7-[4-(1,1-Dioxido-thiomorpholin-4-ylmethyl)-3,5-difluoro-phenyl]-7H-pyrrolo[2,3-d]pyrimidin-2-yl}-(3-methoxy-4-methyl-phenyl)-amine] | < 3 nM | 15 nM |
| Cc1ccc(Nc2ncc3ccn(-c4cc(F)c(CN5CCOCC5(C)C)c(F)c4)c3n2)cc1C [Example 309, {7-[4-(3,3-Dimethyl-morpholin-4-ylmethyl)-3,5-difluoro-phenyl]-7H-pyrrolo[2,3-d]pyrimidin-2-yl}-(3,4-dimethyl-phenyl)-amine] | 780 nM | 4160 nM |
| Cc1ccc(Nc2ncc3ccn(-c4cc(F)c(CN5CCN(C)C(=O)C5)c(F)c4)c3n2)cc1C [Example 310, 4-{4-[2-(3,4-Dimethyl-phenylamino)-pyrrolo[2,3-d]pyrimidin-7-yl]-2,6-difluoro-benzyl}-1-methyl-piperazin-2-one] | 6.4 nM | 570 nM |
| Cc1ccc(Nc2ncc3ccn(-c4cc(F)c(CN5CCNC(=O)C5)c(F)c4)c3n2)cc1C [Example 312, 4-{4-[2-(3,4-Dimethyl-phenylamino)-pyrrolo[2,3-d]pyrimidin-7-yl]-2,6-difluoro-benzyl}-piperazin-2-one] | 13 nM | 565 nM |
| Cc1ccc(Nc2ncc3ccn(-c4ccc(S(C)(=O)=O)cc4)c3n2)cc1CN1CCNCC1 [Example 333, [7-(4-Methanesulfonyl-phenyl)-7H-pyrrolo[2,3-d]pyrimidin-2-yl]-(4-methyl-3-piperazin-1-ylmethyl-phenyl)-amine] | 3.9 nM | 530 nM |
| Cc1ccc(Nc2ncc3ccn(-c4cc(F)c(CN5CCOCC5)c(F)c4)c3n2)cc1CN1CCNC(=O)C1 [Example 334, 4-{5-[7-(3,5-Difluoro-4-morpholin-4-ylmethyl-phenyl)-7H-pyrrolo[2,3-d]pyrimidin-2-ylamino]-2-methyl-benzyl}-piperazin-2-one] | ≤ 3 nM | 260 nM |
| CN1CCN(Cc2ccc(Nc3ncc4ccn(-c5ccc(S(C)(=O)=O)cc5)c4n3)cc2)CC1=O [Example 335, 4-{4-[7-(4-Methanesulfonyl-phenyl)-7H-pyrrolo[2,3-d]pyrimidin-2-ylamino]-benzyl}-1-methyl-piperazin-2-one] | 9.3 nM | 360 nM |
| Cc1ccc(Nc2ncc3ccn(-c4ccc(C(=O)N5CCOCC5)c(F)c4)c3n2)cc1CN1CCNCC1 [Example 336, {2-Fluoro-4-[2-(4-methyl-3-piperazin-1-ylmethyl-phenylamino)-pyrrolo[2,3-d]pyrimidin-7-yl]-phenyl}-morpholin-4-yl-methanone] | 3.6 nM | 205 nM |
| CN1CCN(Cc2ccc(Nc3ncc4ccn(-c5ccc(C(=O)N6CCOCC6)c(F)c5)c4n3)cc2)CC1=O [Example 337, 4-(4-{7-[3-Fluoro-4-(morpholine-4-carbonyl)-phenyl]-7H-pyrrolo[2,3-d]pyrimidin-2-ylamino}-benzyl)-1-methyl-piperazin-2-one] | 6.1 nM | 185 nM |
